Experimental data taken from article PMC5011342, “A high throughput drug screening assay to identify compounds that promote oligodendrocyte differentiation using acutely dissociated and purified oligodendrocyte precursor cells” (BMC Research Notes, 2016).
Where two headings read alike, the source gives them in different places.

Tests used:
[1] = system: acutely dissociated and purified rat OPCs; assay: Acute OL differentiation assay (MBP expression/cell, immunofluorescent image quantification); type: cell-based; conditions: for activation at 2 µM / activation at 10 µM / activation at 0.4 µM: Rattus norvegicus
Method in brief: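 This acute differentiation assay used purified rat OPCs from postnatal day 6–7 pups, seeded into PDL/laminin-coated 96-well plates in differentiation medium lacking PDGF and FGF. Compounds were applied in quadruplicate after a 1–2 h preincubation at 37 °C, 10 % CO2, with 0.1 % DMSO negative and 40 ng/ml T3 positive controls in eight wells. After fixation on DIV4, anti-MBP immunofluorescence images yielded MBP expression/cell.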

expanded OPCs = assay: cells; conditions: for viability at 0.1 µM / viability at 1 µM / viability at 10 µM: Rattus norvegicus, 72 h
Method in brief: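 Toxicity screen: compounds added at 0.1, 1 and 10 µM to PDGF-AA-expanded OPCs in 96-well plates, 3-day incubation at 37 °C, 10% CO2, then alamarBlue 1:10 for 4 h with fluorescence readout. Results set screening doses of 10/2, 2/0.4 or 0.4/0.08 µM.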

[2] = test compound at 2 uM, NCC library screen, sheet "All OLga data", relative to quetiapine, read-out: 2 uM (% Quet)
[3] = test compound at 10 uM, NCC library screen, sheet "All OLga data", relative to quetiapine, read-out: 10 uM (% Quet)
[4] = read-out: 0.1 µM (% DMSO), alamarBlue viability, NCC library compound at 0.1 µM, sheet "All Tox data"
[5] = read-out: 1 µM (% DMSO), alamarBlue viability, NCC library compound at 1 µM, sheet "All Tox data"
[6] = read-out: 10 µM (% DMSO), alamarBlue viability, NCC library compound at 10 µM, sheet "All Tox data"
[7] = 2 uM test compound, relative to quetiapine, sheet "All OLga data", read-out: OL differentiation, 2 uM (% Quet)
[8] = 10 uM test compound, relative to quetiapine, sheet "All OLga data", read-out: OL differentiation, 10 uM (% Quet)
[9] = read-out: 0.1 µM (% DMSO), alamarBlue viability of expanded OPCs, compound at 0.1 µM, sheet All Tox data
[10] = read-out: 1 µM (% DMSO), alamarBlue viability of expanded OPCs, compound at 1 µM, sheet All Tox data
[11] = read-out: 10 µM (% DMSO), alamarBlue viability of expanded OPCs, compound at 10 µM, sheet All Tox data
[12] = test compound at 2 uM, MBP expression relative to quetiapine, NCC library screen, sheet "All OLga data", read-out: 2 uM (% Quet)
[13] = test compound at 10 uM, MBP expression relative to quetiapine, NCC library screen, sheet "All OLga data", read-out: 10 uM (% Quet)
[14] = alamarBlue viability of expanded OPCs, compound at 0.1 µM, relative to DMSO control
[15] = alamarBlue viability of expanded OPCs, compound at 1 µM, relative to DMSO control
[16] = alamarBlue viability of expanded OPCs, compound at 10 µM, relative to DMSO control

O=C1CC2(CCCC2)CC(=O)N1CCNCC1COc2ccccc2O1 (stereo not drawn) [Binospirone]
activation at 2 µM [1, 2]: 37.7%
activation at 10 µM [1, 3]: 14.1%
viability at 0.1 µM (expanded OPCs; [4]): 96%
viability at 1 µM (expanded OPCs; [5]): 97.6%
viability at 10 µM (expanded OPCs; [6]): 97.4%

CC(C)NCC(O)COc1ccc(COCCOC(C)C)cc1 (stereo not drawn) [Bisoprolol]
activation at 2 µM [1, 7]: -18.8%
activation at 10 µM [1, 8]: -17.3%
viability at 0.1 µM (expanded OPCs; [9]): 91.3%
viability at 1 µM (expanded OPCs; [10]): 89.8%
viability at 10 µM (expanded OPCs; [11]): 96.5%

Brc1c(NC2=NCCN2)ccc2nccnc12 [Brimonidine]
activation at 2 µM [1, 12]: 21.9%
activation at 10 µM [1, 13]: 8.8%
0.1 µM (% DMSO) (expanded OPCs; [14]): 91.9 % DMSO
1 µM (% DMSO) (expanded OPCs; [15]): 99.2 % DMSO
10 µM (% DMSO) (expanded OPCs; [16]): 95.4 % DMSO

CN(C)CCC(c1ccc(Br)cc1)c1ccccn1 (stereo not drawn) [Brompheniramine]
activation at 0.4 µM ([1]; 0.4 uM test compound, relative to quetiapine, sheet "All OLga data", read-out: OL differentiation, 0.4 uM (% Quet)): -2%
activation at 2 µM [1, 7]: 0.5%
viability at 0.1 µM (expanded OPCs; [4]): 95.3%
viability at 1 µM (expanded OPCs; [5]): 84.4%
viability at 10 µM (expanded OPCs; [6]): 39.2%

COc1cc2c(cc1OC)[C@@]13CCN4CC5=CCO[C@H]6CC(=O)N2[C@H]1[C@H]6[C@H]5C[C@H]43 [Brucine]
activation at 0.4 µM ([1]; test compound at 0.4 uM, NCC library screen, sheet "All OLga data", relative to quetiapine, read-out: 0.4 uM (% Quet)): -2.6%
activation at 2 µM [1, 2]: 11%
viability at 0.1 µM (expanded OPCs; [4]): 93%
viability at 1 µM (expanded OPCs; [5]): 79.4%
viability at 10 µM (expanded OPCs; [6]): 46.6%

CCCC1O[C@@H]2C[C@H]3[C@@H]4CCC5=CC(=O)C=C[C@]5(C)[C@H]4[C@@H](O)C[C@]3(C)[C@]2(C(=O)CO)O1 (stereo partly drawn) [Budesonide]
activation at 2 µM [1, 12]: 20.2%
activation at 10 µM [1, 13]: -2.2%
0.1 µM (% DMSO) (expanded OPCs; [14]): 112.0 % DMSO
1 µM (% DMSO) (expanded OPCs; [15]): 115.9 % DMSO
10 µM (% DMSO) (expanded OPCs; [16]): 95.7 % DMSO

COc1cc(OC)c(C(=O)CCCN2CCCC2)c(OC)c1 [Buflomedil]
activation at 2 µM [1, 7]: -16.4%
activation at 10 µM [1, 8]: 24.4%
viability at 0.1 µM (expanded OPCs; [9]): 105%
viability at 1 µM (expanded OPCs; [10]): 97.6%
viability at 10 µM (expanded OPCs; [11]): 124%

CCCCNc1cc(C(=O)O)cc(S(N)(=O)=O)c1Oc1ccccc1 [Bumetanide]
activation at 2 µM [1, 2]: -20.2%
activation at 10 µM [1, 3]: -11.6%
0.1 µM (% DMSO) (expanded OPCs; [14]): 92.3 % DMSO
1 µM (% DMSO) (expanded OPCs; [15]): 97.8 % DMSO
10 µM (% DMSO) (expanded OPCs; [16]): 92.2 % DMSO

CCCCN1CCCCC1C(=O)Nc1c(C)cccc1C (stereo not drawn) [Bupivacaine]
activation at 2 µM [1, 2]: -1%
activation at 10 µM [1, 3]: 7%
viability at 0.1 µM (expanded OPCs; [4]): 79.1%
viability at 1 µM (expanded OPCs; [5]): 83.4%
viability at 10 µM (expanded OPCs; [6]): 70.5%

CC(NC(C)(C)C)C(=O)c1cccc(Cl)c1 (stereo not drawn) [Bupropion]
activation at 2 µM [1, 7]: 33.6%
viability at 0.1 µM (expanded OPCs; [9]): 94.3%
viability at 1 µM (expanded OPCs; [10]): 98.9%
viability at 10 µM (expanded OPCs; [11]): 128%

O=C1CC2(CCCC2)CC(=O)N1CCCCN1CCN(c2ncccn2)CC1 [Buspirone]
activation at 2 µM [1, 12]: 11.2%
activation at 10 µM [1, 13]: 38.1%
0.1 µM (% DMSO) (expanded OPCs; [14]): 98.1 % DMSO
1 µM (% DMSO) (expanded OPCs; [15]): 95.9 % DMSO
10 µM (% DMSO) (expanded OPCs; [16]): 122.3 % DMSO

CS(=O)(=O)OCCCCOS(C)(=O)=O [Busulfan]
activation at 2 µM [1, 2]: 2.3%
activation at 10 µM [1, 3]: -6.2%
0.1 µM (% DMSO) (expanded OPCs; [14]): 93.9 % DMSO
1 µM (% DMSO) (expanded OPCs; [15]): 91.8 % DMSO
10 µM (% DMSO) (expanded OPCs; [16]): 79.1 % DMSO

OC[C@H]1O[C@@H](n2cnc3c(NC4CCCC4)nc(Cl)nc32)[C@H](O)[C@@H]1O [CCPA]
2 uM (% Quet) ([1]; test compound at 2 uM, NCC library screen, sheet "All OLga data", relative to quetiapine): -30.5 % Quet
10 uM (% Quet) ([1]; test compound at 10 uM, NCC library screen, sheet "All OLga data", relative to quetiapine): -64.0 % Quet
0.1 µM (% DMSO) (expanded OPCs; alamarBlue viability, NCC library compound at 0.1 µM, sheet "All Tox data"): 87.1 % DMSO
1 µM (% DMSO) (expanded OPCs; alamarBlue viability, NCC library compound at 1 µM, sheet "All Tox data"): 88.1 % DMSO
10 µM (% DMSO) (expanded OPCs; alamarBlue viability, NCC library compound at 10 µM, sheet "All Tox data"): 93.0 % DMSO

Nc1nc2ccc(Cl)cc2c2nc(-c3ccco3)nn12 [CGS 15943]
activation at 2 µM ([1]; read-out: OL differentiation, 2 uM (% Quet)): -24.4%
activation at 10 µM ([1]; read-out: OL differentiation, 10 uM (% Quet)): -126%
viability at 0.1 µM (expanded OPCs; read-out: 0.1 µM (% DMSO)): 81.2%
viability at 1 µM (expanded OPCs; read-out: 1 µM (% DMSO)): 94.8%
viability at 10 µM (expanded OPCs; read-out: 10 µM (% DMSO)): 112%
